Read-outs that look alike come from different tables or passages of the source. Marks after values point to notes of the source that are not given here.
Tests used:
[1] = cited from earlier work
seizures = details: THC administered to 5 institutionalized children not responding to phenobarbital and phenytoin; cited from earlier work
PTZ-induced seizures [2] = test: PTZ model of generalised seizures (80 mg/kg PTZ); type: in vivo, Wistar rats; details: for Median severity: vehicle 4.25; for % no seizure: vehicle 12.5; for mortality rate: vehicle 44%, not significant
Description: Male Wistar rats (P24-29; 75-110 g) were used to assess the effects of the phytocannabinoid CBDV in the PTZ model of generalised seizures. Animals were habituated to the test environment, cages, injection protocol and handling prior to experimentation. Animals were housed in a room at 21° C. on a 12 hour light: dark cycle (lights on 0900) in 50% humidity, with free access to food and water.
Five 6 L Perspex tanks with lids were placed on a single bench with dividers between them. Closed-circuit television (CCTV) cameras were mounted onto the dividers to observe rat behaviour. Sony Topica CCD cameras (Bluecherry, USA) were linked via BNC cables to a low-noise PC via Brooktree digital capture cards (Bluecherry, USA). Zoneminder (http://www.zoneminder.com) software was used to monitor rats, start and end recordings and manage video files. In-house Linux scripts were used to encode video files into a suitable format for further offline analysis using The Observer (Noldus Technologies).
A range of doses of PTZ (50-100 mg/kg body weight) were used to determine the best dose for induction of seizures (see below). As a result, a dose of 80 mg/kg injected intra-peritoneally (IP; stock solution 50 mg/ml in 0.9% saline) were used to screen the CBDV.
On the day of testing, pure CBDV was administered via intra-peritoneal (i.p.) injection at doses of 50, 100 and 200 mg/kg alongside animals that were injected with a matched volume of the cannabinoid vehicle (2:1:17 ethanol:Cremophor: 0.9% w/v NaCl solution), which served as the negative control group. Animals were then observed for 1 hour, after which time they received an IP injection of 80 mg/kg PTZ. Negative vehicle controls were performed in parallel with cannabinoid-dosed subjects. After receiving a dose of PTZ, animals were observed and videoed to determine the severity of seizure and latency to several seizure behaviour types (see in vivo analysis, below). Animals were filmed for half an hour after last sign of seizure, and then returned to their cage.
Animals were observed during experimental procedures, but all analysis was performed offline on recorded video files using The Observer behavioural analysis software (Noldus, Netherlands). A seizure severity scoring system was used to determine the levels of seizure experienced by subjects (Pohl & Mares, 1987). All signs of seizure were detailed for all animals.
The latency (in seconds) from injection of PTZ to first myoclonic jerk (FMJ; score of 1), and to the animal attaining “forelimb clonus with tonic component and body twist” (score of 3.5) were recorded. FMJ is an indicator of the onset of seizure activity, whilst >90% of animals developed scores of 3.5, and so is a good marker of the development of more severe seizures. Data are presented as the mean±S.E.M. within an experimental group.
This is given as the median value for each experimental group based on the scoring scale below.
The percentage of animals within an experimental group that died as a result of PTZ-induced seizures. Note that the majority of animals that developed tonic-clonic seizures (scores of 4 and 5) died as a result, and that a score of 6 (death) automatically denotes that the animal also experienced tonic-clonic seizures.
This is given as the mean±S.E.M. for each experimental group.
For measures of latency and severity, one way analysis of variance (ANOVA) was performed on the four groups together (vehicle and 50, 100 and 200 mg/kg CBDV) to detect overall effects of CBDV (p≤0.05 considered significant).
Significant ANOVA results were followed by post hoc tests to test differences between vehicle and drug groups (Tukey's test, p≤0.05 considered significant).
Methodology as described in Example 2.
General methodology is as described in Example 2.
Three doses of THCV BDS were assessed against a concentration of PTZ known to induce moderate seizures in rats (70 mg/kg; see pilot, above). […]

CB1 receptor = CB1 receptor (Homo sapiens, UniProt P21554); details: cited from earlier work
seizure frequency [3] = details: 900-1200 mg of cannabidiol a day for 10 months; single patient; cited from earlier work
CB2 receptor = CB2 receptor (Homo sapiens, UniProt P34972); details: WO 2007/138322; cited from earlier work
MES-induced seizure = test: Maximal electroshock seizure (MES) model of epilepsy; type: in vivo, Mouse/ICR
Description: The vehicle used in this study was 2:1:17 (ethanol:Cremophor:0.9% ^w/v, NaCl). The test compounds used were cannabidiol (CBD) and cannabidivarin (CBDV). These were made to a solution at the highest concentration; these were then dissolved in ethanol before combination with Cremophor and 0.9% NaCl in the proportion described above. The CBD or CBDV were administered intraperitoneally at a volume of 10 ml/kg body weight. The SAED valproic acid (VBA) was dissolved in saline.
Animal Species/Strain: Mouse/ICR, Microbiological grade: SPF, Supplier: SLC Japan, Inc. […] Temperature: 23±2° C., Humidity: 60±10%, Light conditions: 7 AM to 7 PM for the light period, 7 PM to 7 AM for the dark period. Chow and water: Free access to CRF-1 (Oriental Yeast Co, Ltd) and tap water.
One day before each experiment, mice were weighed and randomized into several groups in each test. On the morning of the experiment day, body weight was measured in order to calculate the administration volume of each animal. Vehicle, CBD, CBDV or valproic acid sodium salt was interperitoneally administered 30 minutes before electric stimuli. Maximal electroshock seizures (MES) in mice was induced by a stimulator (UGO BASILE ECT UNIT 7801, Italia) using a current of 30 mA delivered with a pulse frequency of 100 Hz for 200 msec through earlap electrodes.
All statistical analyses were performed using SAS Software for Windows, Release 9.1 (SAS Institute Japan). The difference of the number (hindlimb extension or deaths) in each group was assessed using two-tailed Fisher's exact test.

grand mal seizures = details: 200-300 mg of cannabidiol plus regular medication; Cunha et al (1980); cited from earlier work
seizure frequency [4] = details: 200-300 mg of cannabidiol per day in addition to standard antiepileptic drugs; 12 patients; cited from earlier work
[5] = rats; WO 2007/138322; cited from earlier work
[6] = test system: pilocarpine-induced seizures; test: CBDV with standard anti-epileptic drugs in the pilocarpine model of epilepsy; type: in vivo; details: CBDV 200 mg/kg with valproate at various doses
Description: These two drugs are representative of two classes of anti-convulsants which have different mechanisms of action.

PTZ-induced seizures [7] = test: CBDV with standard anti-epileptic drugs in the PTZ model of generalised seizures; type: in vivo, Wistar rats; details: valproate (varying doses) co-administered with CBDV 200 mg/kg
Description: As described in Example 2 above. Varying doses of the SAED's ethosuximide and valproate were tested in combination to isolated CBDV at a dose of 200 mg/kg.

[8] = rats at doses greater than 200 mg/kg

Chain of CB1 receptor (P21554 whole entry): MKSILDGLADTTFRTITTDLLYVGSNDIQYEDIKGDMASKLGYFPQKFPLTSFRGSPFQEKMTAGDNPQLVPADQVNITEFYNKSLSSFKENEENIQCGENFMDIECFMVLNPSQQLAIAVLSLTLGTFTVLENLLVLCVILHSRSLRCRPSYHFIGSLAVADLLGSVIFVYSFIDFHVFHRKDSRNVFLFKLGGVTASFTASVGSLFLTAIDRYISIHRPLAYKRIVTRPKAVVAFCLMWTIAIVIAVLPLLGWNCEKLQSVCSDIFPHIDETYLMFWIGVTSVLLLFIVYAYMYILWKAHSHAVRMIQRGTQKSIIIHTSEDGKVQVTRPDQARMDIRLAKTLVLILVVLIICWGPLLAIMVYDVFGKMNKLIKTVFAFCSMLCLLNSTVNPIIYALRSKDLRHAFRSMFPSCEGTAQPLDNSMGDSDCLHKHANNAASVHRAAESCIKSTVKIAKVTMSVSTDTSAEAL
Chain of CB2 receptor (P34972 whole entry): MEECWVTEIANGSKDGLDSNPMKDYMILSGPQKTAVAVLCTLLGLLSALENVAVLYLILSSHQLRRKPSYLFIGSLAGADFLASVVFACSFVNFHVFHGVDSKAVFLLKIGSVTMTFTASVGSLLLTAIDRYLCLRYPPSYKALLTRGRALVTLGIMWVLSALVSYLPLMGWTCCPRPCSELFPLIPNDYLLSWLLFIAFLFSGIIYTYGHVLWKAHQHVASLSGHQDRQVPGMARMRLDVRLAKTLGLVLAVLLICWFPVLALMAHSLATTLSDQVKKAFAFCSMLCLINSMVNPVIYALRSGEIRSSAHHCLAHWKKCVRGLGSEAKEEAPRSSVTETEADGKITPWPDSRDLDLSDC

## CCC1(c2ccccc2)C(=O)NC(=O)NC1=O [phenobarbital]
[1]; rat models of epilepsy at doses greater than 250 mg/kg
  motor and other side effects: notable motor and other side effects (including sedation)

## CCCCCc1cc(O)c2c(c1)OC(C)(C)[C@@H]1CCC(C)=C[C@@H]21 [THC, tetrahydrocannabinol]
seizures
  seizure outcome in 5 children: One became entirely free of seizures, one became almost completely free of seizures, and the other three did no worse than before

## CCCc1cc(O)c2c(c1)OC(C)(C)[C@@H]1CCC(C)=C[C@@H]21 [THCV, tetrahydrocannabivarin]
PTZ-induced seizures [2]; 0.025 mg/kg THCV, 80 mg/kg PTZ
  Median severity: 3.5
  % no seizure: 5.9%
PTZ-induced seizures [2]; 0.25 mg/kg THCV, 80 mg/kg PTZ
  Median severity: 3.5
  % no seizure: 33.3%
PTZ-induced seizures [2]; 2.5 mg/kg THCV, 80 mg/kg PTZ
  Median severity: 3.5
  % no seizure: 18.8%
PTZ-induced seizures [2]; high (2.5 mg/kg) pure THCV, 80 mg/kg PTZ
  mortality rate: 38%
PTZ-induced seizures [2]; highest dose of THCV (2.5 mg/kg), 80 mg/kg PTZ, p=0.013
  latency to score of [5] vs vehicle: increased latencies, reaching a significant level
PTZ-induced seizures [2]; highest dose of THCV (2.5 mg/kg), 80 mg/kg PTZ, p=0.017
  latency to score of [3] vs vehicle: increased latencies, reaching a significant level
PTZ-induced seizures [2]; highest dose of THCV (2.5 mg/kg), 80 mg/kg PTZ, p=0.02
  latency to first manifestation of seizure-like behaviour vs vehicle: delay of onset was significant
PTZ-induced seizures [2]; low (0.025 mg/kg) pure THCV, 80 mg/kg PTZ
  mortality rate: 41%
PTZ-induced seizures [2]; medium (0.25 mg/kg) pure THCV, 80 mg/kg PTZ
  mortality rate: 33%
PTZ-induced seizures [2]; medium dose of THCV (0.25 mg/kg), 80 mg/kg PTZ, p=0.03
  duration of PTZ-induced seizures in animals that survived vs vehicle: significantly shorter
CB1 receptor
  activity at the CB1 receptor: antagonist

## C=C(C)[C@@H]1CCC(C)=C[C@H]1c1c(O)cc(CCCCC)cc1O [CBD, cannabidiol]
Seizure frequency [3]
  seizure frequency: markedly reduced
PTZ-induced seizures [2]; 100 mg/kg CBD IP 60 minutes before 80 mg/kg PTZ, vehicle 46.7%, p<0.001
  animals that died: 6.7%
PTZ-induced seizures [2]; 100 mg/kg CBD IP, 80 mg/kg PTZ, vehicle 53.3%, p<0.001
  animals that experienced the most severe seizures (score of 5): 6.7%
PTZ-induced seizures [2]; CBD 1, 10 and 100 mg/kg IP, 80 mg/kg PTZ
  latency of seizure development: no significant increases
CB2 receptor
  activity at the CB2 receptor: inverse agonists
MES-induced seizure; 3 mg/kg i.p., Table 10.1, 5 mice per group, vehicle 5/5
  Incidence of Tonic convulsion: 3/5
MES-induced seizure; 10 mg/kg i.p., Table 10.1, 5 mice per group, vehicle 5/5
  Incidence of Tonic convulsion: 4/5
MES-induced seizure; 30 mg/kg i.p., Table 10.1, 5 mice per group, vehicle 5/5
  Incidence of Tonic convulsion: 3/5
MES-induced seizure; 100 mg/kg i.p., Table 10.1, 5 mice per group, vehicle 5/5
  Incidence of Tonic convulsion: 4/5
MES-induced seizure; CBD 3-100 mg·kg IP
  inhibition of the expression of hindlimb extension with statistical significance: not able to inhibit
Grand mal seizures
  patients who remained unchanged: 1
  patients who showed complete improvement: 3
  patients who showed minor improvement: 2
  patients who showed partial improvement: 2
  unwanted effect: mild sedation
Seizure frequency [4]
  improvement in seizure frequency: no significant improvement
CB1 receptor
  activity at the CB1 receptor: inverse agonists
[5]
  bodyweight: reduced

## CCC1(C)CC(=O)NC1=O (stereo not drawn) [ethosuximide]
[1]; [8]
  motor and other side effects: notable motor and other side effects (including sedation)

## CCCC(CCC)C(=O)O [Valproic acid, valproic acid, reference compound]
[6]
  mortality (independent effect): only CBDV and not valproate independently caused a significant decrease
  seizure severity (independent effect): independent and positive effects
MES-induced seizure; 200 mg/kg i.p., Table 10.2, 10 mice per group, vehicle 9/10
  Incidence of Tonic convulsion: 5/10
MES-induced seizure; 350 mg/kg i.p., Table 10.1, 5 mice per group, vehicle 5/5
  Incidence of Tonic convulsion: 0/5**
MES-induced seizure; 350 mg/kg i.p., Table 10.2, 10 mice per group, vehicle 9/10
  Incidence of Tonic convulsion: 1/10**
MES-induced seizure; 350 mg/kg valproic acid, statistically significant
  hindlimb extension vs vehicle group: blocked
[1]; [8]
  motor and other side effects: notable motor and other side effects (including sedation)
PTZ-induced seizures [7]
  mortality (independent effect when co-administered): significant decreases
  onset latency (independent effect when co-administered): significant decreases
  seizure severity (independent effect when co-administered): significant decreases

— patent US10799467B2, “Use of the phytocannabinoid cannabidivarin (CBDV) in the treatment of epilepsy” (GW Pharma Limited, priority 2010, dated 2020)
